In PubChem BioAssay (NCI) one finds TGI and GI50 data, which are given here for 27 compounds.

Holding throughout (assay): inhibition of tumour cell growth, NCI panel, 48 h
Assay [1] relates to HL-60(TB) leukemia.
In assay [2] the test system is HCT-116 colon.
Assay [3] deals with A498 renal.
The subject of assay [4] is NCI-H226 lung.
Assay [5] deals with HS 578T breast.
Assay [6] concerns TK-10 renal.
The subject of assay [7] is KM12 colon.
Assay [8] has as its system HOP-62 NSCLC.
The subject of assay [9] is 786-0 renal.
In assay [10] the test system is OVCAR-8 ovarian.

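Test compounds were applied to cells in 96-well plates for 48 hours at 5 doses. At the GI50, growth is halved. TGI denotes the concentration required for complete inhibition of growth.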 Where a SMILES comes first, the peptide text is derived from it. [ ]: non-standard residue; d: D form. The star is where a group is joined. Tyr(3-Br) = N[C@@H](Cc1ccc(O)c(Br)c1)C(=O)O; Boc = CC(C)(C)OC(=O)*

For the compound `COc1cc(C)cc2c1c(=O)c1ccccc1n2C`, the TGI in assay [1] is 83.3 µM; in assay [2] it was 76.3 µM; in assay [3], 89.2 µM; in [4], 81.5 µM; in assay [5] it was 78.9 µM; in assay [6] it was greater than 100 µM. In addition, the TGI in assay [7], in assay [8], in assay [9] and in assay [10] was greater than 100 µM each time.
Turning to `Cc1nc2c(nc1C)-c1c(c3c(n1C)C(=O)CCC3)C(=O)C2=O`, the TGI in assay [1] was determined as 0.508 µM; in assay [2] it was 1.44 µM; in [3], 2.59 µM; in assay [4], 2.77 µM; in assay [5] it was 9.62 µM; in [6], 4.51 µM. Besides, the TGI in assay [7] turned out to be 5.81 µM; in [8], 2.37 µM; in assay [9], 3.23 µM; in assay [10] it was 0.638 µM.
For the compound `Cc1cc(N=Nc2c(O)ccc3ccccc23)ccc1N=Nc1cccc([N+](C)(C)C)c1`, the TGI in assay [2] stood at 75.5 µM; in assay [3], 98.8 µM; in [4], 30.2 µM; in assay [5] it was 47 µM; in assay [6], 49.5 µM; in assay [7] it was 17.3 µM. Moreover, the TGI is 43.2 µM in assay [8], greater than 92 µM in assay [9] and 57.3 µM in [10].
In the case of `CCN(CC)CCNC(=O)c1ccc(I)cc1`, the TGI was greater than 100 µM in assay [2]; 84.9 µM in assay [3]; greater than 100 µM in assay [4]; greater than 100 µM in assay [5]; greater than 100 µM in assay [6]; greater than 100 µM in assay [7]. Further, the TGI in [8], in [9] and in assay [10] was greater than 100 µM throughout.
Take `Cn1c(-c2cccs2)cc(-c2cccs2)c1-c1ccco1`: the TGI was greater than 75.7 µM in assay [1]; greater than 100 µM in assay [2]; greater than 79.2 µM in assay [3]; greater than 100 µM in assay [4]; greater than 91.7 µM in assay [5]; greater than 100 µM in assay [6]. In addition, the TGI in [7] is 22.9 µM; in [8], greater than 100 µM; in [9] it was greater than 100 µM; in assay [10] it was greater than 100 µM.
Take `CCOC(=O)c1sc(N/N=C2\NC(=O)/C(=C/c3ccc([N+](=O)[O-])cc3)S2)nc1C`: the TGI in assay [1] was 51.8 µM; in assay [2], 36.7 µM; in assay [3], 58.5 µM; in assay [4] it was 55.1 µM; in assay [5], greater than 100 µM; in assay [6] it was greater than 100 µM. Further, the TGI was determined as 57.1 µM in assay [7], 38 µM in assay [8], 33.7 µM in assay [9] and 65.2 µM in assay [10].
Regarding `COc1cc(C2SC(N)=Nc3c2c(C)nn3C(=O)c2ccccc2O)ccc1O` (stereo not given), the TGI is greater than 4.56 µM in [1]; greater than 10 µM in [2]; greater than 10 µM in assay [3]; greater than 6.18 µM in [4]; greater than 10 µM in [5]; greater than 10 µM in assay [6]. Besides, the TGI in [7], in assay [8], in assay [9] and in [10] was greater than 10 µM in each case.
As to `N#CC(=C1CCCCC1)c1nc2ccccc2o1`, the TGI in assay [1] is 75 µM; in [2] it was greater than 100 µM; in assay [3], greater than 100 µM; in [4] it was greater than 100 µM; in assay [5], greater than 100 µM; in [6] it was greater than 100 µM. Moreover, the TGI in assay [7], in assay [8], in assay [9] and in assay [10] was greater than 100 µM in each case.
`CCCCSC1=N/C(=C\c2ccc(N(C)C)cc2)C(NN)=N1`: the TGI in assay [1], in assay [2], in assay [3], in [5], in [6] and in assay [7] was greater than 100 µM throughout. In addition, the TGI in [8], in assay [9] and in assay [10] was greater than 100 µM in each case.
As to `CN(C)Cc1cc(C(C)(C)C)ccc1-c1ccc(C(C)(C)C)cc1CN(C)C`, the TGI in assay [1], in assay [2], in assay [3], in [4], in assay [5] and in assay [6] was greater than 100 µM in each case. Besides, the TGI in [7], in assay [8], in assay [9] and in assay [10] was greater than 100 µM throughout.
For `COC(=O)[C@H](Cc1ccc(O)c(Br)c1)NC(=O)[C@H](Cc1ccc(O)cc1)NC(=O)OC(C)(C)C` (Boc-Tyr-[Tyr(3-Br)]-OMe), the TGI in assay [1], in assay [2], in [3], in assay [4], in assay [5] and in [6] was greater than 100 µM each time. Besides, the TGI in [7] is greater than 100 µM; in assay [8], greater than 100 µM; in assay [9] it was greater than 100 µM; in assay [10] it was 37.5 µM.
`CCCCc1ccc(Nc2nc(=S)c3[nH]cnc3[nH]2)cc1`: the TGI in [1] is 57.8 µM; in assay [2] it was greater than 100 µM; in [3], 31.7 µM; in assay [4] it was 31.6 µM; in assay [5] it was 49.3 µM; in assay [6] it was 46.5 µM. The TGI was 25.8 µM in [7] and greater than 100 µM in [9].
Consider `CC(=O)Oc1cc2c(c3ncccc13)OC(C)(C)C2`, for which the TGI stood at 27.5 µM in assay [2]; 33 µM in assay [3]; 33.1 µM in assay [4]; 24.9 µM in [5]; 26.3 µM in assay [6]; 30.7 µM in assay [7]. Moreover, the TGI turned out to be 30.6 µM in assay [8], 30.3 µM in assay [9] and 74.8 µM in assay [10].
Regarding `CCCCOC(=O)NC(Nc1cccc(C(F)(F)F)c1)(C(F)(F)F)C(F)(F)F`, the TGI in [1] is 56.2 µM; in [2], greater than 100 µM; in assay [3], greater than 100 µM; in assay [4] it was greater than 100 µM; in assay [5] it was greater than 100 µM; in assay [6], greater than 100 µM. In addition, the TGI in assay [7], in [8], in assay [9] and in [10] was greater than 100 µM each time.
Take `CCCC(=O)O[C@H]1C=C2C[C@@]34SS[C@]5(CC6=C[C@H](OC(C)=O)[C@@H]7O[C@@H]7[C@H]6N5C3=O)C(=O)N4[C@@H]2[C@H]2O[C@H]21`: the TGI in assay [1] was found to be 2.71 µM; in assay [2], 0.0285 µM; in assay [3], 0.0697 µM; in assay [4], 1.77 µM; in [5] it was 18.6 µM; in [6], 0.24 µM. Besides, the TGI in assay [7] was 2.29 µM; in assay [8], 0.0892 µM; in [9], 0.00841 µM; in assay [10], 0.907 µM.
For the compound `O=C(Nc1c(C(F)(F)F)cc(-c2ccccc2)[nH]c1=O)N1CCOCC1`, the TGI in assay [1] was 79.5 µM; in assay [2] it was greater than 100 µM; in assay [3] it was greater than 100 µM; in [4], greater than 100 µM; in assay [5] it was greater than 100 µM; in assay [6] it was greater than 100 µM. Besides, the TGI in assay [7], in assay [8], in assay [9] and in assay [10] was greater than 100 µM each time.
As for `COc1cc(C(=O)O[C@@H]2[C@@H](OC(=O)c3cc(OC)c(OC)c(OC)c3)[C@@H](OC)O[C@@H]3CO[C@@H](c4ccccc4)O[C@@H]23)cc(OC)c1OC`, the TGI in assay [1], in [2], in [3], in assay [4], in [5] and in assay [6] was greater than 100 µM throughout. Also, the TGI in assay [7], in assay [8], in assay [9] and in [10] was greater than 100 µM throughout.
As to `O=C1CC(=O)NC(=NN2C(=O)/C(=C/c3ccccc3)N=C2c2ccccc2)N1`, the TGI in assay [2], in assay [3], in assay [4], in assay [5], in [6] and in [7] was greater than 100 µM in each case. In addition, the TGI in assay [8], in [9] and in assay [10] was greater than 100 µM in each case.
Take `c1ccc(P(CCP(c2ccccn2)c2ccccn2)c2ccccc2)cc1`: the TGI is 78.2 µM in assay [1]; greater than 100 µM in [2]; greater than 100 µM in [3]; greater than 100 µM in assay [4]; greater than 100 µM in [5]; greater than 100 µM in assay [6]. Besides, the TGI in [7], in assay [8], in [9] and in assay [10] was greater than 100 µM throughout.
For the compound `C[C@]12Cc3cnn(-c4ccc(F)cc4)c3NC1CC[C@@H]1C2CC[C@@]2(C)C1CC[C@@H]2O` (stereo not given in full), the TGI was determined as 11.8 µM in assay [1]; 16.6 µM in assay [2]; 23 µM in assay [3]; 28 µM in assay [4]; 26.5 µM in assay [5]; 34 µM in assay [6]. Also, the TGI in assay [7] worked out at 18.3 µM; in assay [8] it was 26.1 µM; in assay [9], 11.9 µM; in [10], 27.9 µM.
As to `CC1(C)CC23CC(C)(C)c4cccc(c42)OCc2ccc4ccc5ccc(nc5c4n2)COc2cccc1c23`, the TGI in [1], in assay [2], in [3], in assay [4], in [5] and in assay [6] was greater than 50 µM each time. Besides, the TGI in [7], in assay [8], in assay [9] and in [10] was greater than 50 µM each time.
Take `Cc1cccc(CC(Cc2c(C)cccc2C(=O)O)C(=O)O)c1` (stereo not given): the TGI in assay [1], in assay [2], in assay [3], in assay [4], in assay [5] and in [6] was greater than 100 µM each time. For the same compound, the TGI in assay [7], in [8], in assay [9] and in [10] was greater than 100 µM each time.
Consider `CC(C)(C)OC(=O)N(O)CCCn1cnc2c(N)ncnc21`, for which the TGI in assay [2], in assay [3], in [4], in assay [5], in [6] and in [7] was greater than 100 µM each time. Moreover, the TGI in assay [8], in [9] and in [10] was greater than 100 µM each time.
Take `COc1cc(/C=C/c2cc(/C=C/c3ccc(O)c(OC)c3)nc(N)n2)ccc1O`: the GI50 is 2.18 µM in [1]; 1.1 µM in assay [2]; 1.51 µM in assay [3]; 1.83 µM in assay [4]; 0.524 µM in [5]; 3.39 µM in assay [6]. The GI50 in assay [7] was 1.63 µM; in [10] it was 2.19 µM. For the same compound, the TGI came to 6.17 µM in [1]; 2.39 µM in assay [2]; 3.26 µM in assay [3]; 4.34 µM in assay [4]; 2.99 µM in [5]; 9.54 µM in assay [6]. The results for the TGI in [7] and in assay [10] were 3.32 µM and 7.24 µM, respectively.
Consider `CCN(CC)C(=S)SS(=O)(=O)c1ccc(Cl)cc1`, for which the TGI in [2] is greater than 100 µM; in [3] it was greater than 100 µM; in assay [4], greater than 100 µM; in assay [5], greater than 100 µM; in assay [6], greater than 100 µM; in [7], 24.4 µM. Moreover, the TGI was 65.7 µM in assay [8], greater than 100 µM in [9] and 34 µM in [10].
Consider `CC1=CCC2C3(C)CCC2(C(C)C)C1C3` (stereo not given) (tested in a mixture with another compound), for which the TGI is 57.3 µM in assay [1]; greater than 100 µM in assay [2]; 89.4 µM in assay [3]; 38.2 µM in assay [5]; 78.7 µM in [6]; 36.8 µM in assay [7]. Besides, the results for the TGI in assay [8], in assay [9] and in assay [10] were 57.5 µM, 47.3 µM and 33.2 µM, respectively.
As for `CN1CCCCC(C#N)(c2ccccc2)CC1` (stereo not given), the TGI in assay [1], in assay [2], in assay [3], in [5], in assay [6] and in assay [7] was greater than 100 µM each time. For the same compound, the TGI in assay [8], in [9] and in assay [10] was greater than 100 µM in each case.
